“And” between values parts separate entries of the source, which are not always exact repeats. Equal entries are not always repeated. Toxic doses and inconclusive results are not listed. How the source made its calls: active means survival T/C of 150% or more; inactive means T/C below 125% in these data.
System: P388 leukemia ip, CD2F1 mice, survival T/C
Experiment: NCI In Vivo Anticancer Drug Screen. Data for tumor model P388 Leukemia (intraperitoneal) in CD2F1 (CDF1) mice
Conditions: endpoint: median survival time, higher = longer survival
How it was run: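 Mice carrying the transplanted tumor received test compound or vehicle. Survival was recorded in each group, and the value is the treated-group measurement divided by that of the vehicle-treated control group.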

[1] = dose: 50.0 mg/kg/injection, schedule: Q01DX009 (ip), vehicle: Klucel (hydroxypropylcellulose) (HPC)
[2] = dose: 100.0 mg/kg/injection, schedule: Q01DX009 (ip), vehicle: Klucel (hydroxypropylcellulose) (HPC)
[3] = dose: 200.0 mg/kg/injection, schedule: Q01DX009 (ip), vehicle: Klucel (hydroxypropylcellulose) (HPC)
[4] = dose: 25.0 mg/kg/injection, schedule: Q01DX009 (ip), vehicle: saline with Tween-80
[5] = dose: 50.0 mg/kg/injection, schedule: Q01DX009 (ip), vehicle: saline with Tween-80
[6] = dose: 100.0 mg/kg/injection, schedule: Q01DX009 (ip), vehicle: saline with Tween-80
[7] = dose: 50.0 mg/kg/injection, schedule: Q01DX005 (ip), vehicle: saline with Tween-80
[8] = dose: 100.0 mg/kg/injection, schedule: Q01DX005 (ip), vehicle: saline with Tween-80
[9] = dose: 200.0 mg/kg/injection, schedule: Q01DX005 (ip), vehicle: saline with Tween-80
[10] = dose: 50.0 mg/kg/injection, schedule: Q01DX009 (ip), vehicle: saline
[11] = dose: 100.0 mg/kg/injection, schedule: Q01DX009 (ip), vehicle: saline
[12] = dose: 200.0 mg/kg/injection, schedule: Q01DX009 (ip), vehicle: saline
[13] = dose: 200.0 mg/kg/injection, schedule: Q01DX009 (ip), vehicle: saline with Tween-80
[14] = dose: 50.0 mg/kg/injection, schedule: Q01DX005 (ip), vehicle: Klucel (hydroxypropylcellulose) (HPC)
[15] = dose: 100.0 mg/kg/injection, schedule: Q01DX005 (ip), vehicle: Klucel (hydroxypropylcellulose) (HPC)

Measured: T/C

C=C1C(=O)OC2CC(C)C3CC(OC)OC(OC)C3(C)CC12 (stereo unspecified)
inactive: [1] 105 % of control and 97 % of control | [2] 103 % of control and 114 % of control | [3] 123 % of control and 97 % of control | dose: 400.0 mg/kg/injection, schedule: Q01DX009 (ip), vehicle: Klucel (hydroxypropylcellulose) (HPC) 119 % of control

COC1/C=C/OC2(C)Oc3c(C)c(O)c4c(O)c(c(/C=N/N5C(C)CN(Cc6ccccc6C#N)CC5C)c(O)c4c3C2=O)NC(=O)/C(C)=C\C=C\C(C)C(O)C(C)C(O)C(C)C(OC(C)=O)C1C (stereo unspecified)
inactive: dose: 12.5 mg/kg/injection, schedule: Q01DX009 (ip), vehicle: saline with Tween-80 111 % of control | [4] 118 % of control | [5] 109 % of control | [6] 107 % of control and 108 % of control

CN1C(=O)N(C)C2(C=Cc3ccccc3O2)N(C)C1=O
inactive: dose: 50.0 mg/kg/injection, schedule: Q04DX003 (ip), vehicle: saline with Tween-80 92 % of control | dose: 100.0 mg/kg/injection, schedule: Q04DX003 (ip), vehicle: saline with Tween-80 98 % of control | dose: 200.0 mg/kg/injection, schedule: Q04DX003 (ip), vehicle: saline with Tween-80 92 % of control

COc1ccc(NC(=S)Nc2ccc(S(=O)(=O)N3CCCCC3)cc2)cc1
inactive: [1] 94 % of control | [2] 94 % of control and 95 % of control | [3] 98 % of control

CC1(C)CCC2=C(O1)c1ccccc1C(=O)C2=O
inactive: dose: 12.5 mg/kg/injection, schedule: Q01DX009 (ip), vehicle: Klucel (hydroxypropylcellulose) (HPC) 96 % of control | dose: 25.0 mg/kg/injection, schedule: Q01DX009 (ip), vehicle: Klucel (hydroxypropylcellulose) (HPC) 105 % of control and 94 % of control | [1] 114 % of control and 96 % of control | [2] 115 % of control

CC1(C)CCNc2ccccc2S1
inactive: dose: 100.0 mg/kg/injection, schedule: Q01DX001 (ip), vehicle: saline with Tween-80 103 % of control | dose: 200.0 mg/kg/injection, schedule: Q01DX001 (ip), vehicle: saline with Tween-80 103 % of control | dose: 400.0 mg/kg/injection, schedule: Q01DX001 (ip), vehicle: saline with Tween-80 100 % of control

CCOC(=O)C1=C(CC)NN=C(C)C1
inactive: [7] 105 % of control | [8] 103 % of control | [9] 100 % of control

CCCCCCCCCCCCCCCCCC[N+]1(CC)CCCCC1
inactive: dose: 0.04 mg/kg/injection, schedule: Q01DX009 (ip), vehicle: saline 95 % of control | dose: 0.09 mg/kg/injection, schedule: Q01DX009 (ip), vehicle: saline 92 % of control | dose: 0.19 mg/kg/injection, schedule: Q01DX009 (ip), vehicle: saline 103 % of control and 118 % of control | dose: 0.39 mg/kg/injection, schedule: Q01DX009 (ip), vehicle: saline 113 % of control and 120 % of control | dose: 0.78 mg/kg/injection, schedule: Q01DX009 (ip), vehicle: saline 99 % of control

Cc1[nH]nc2c1CC(c1ccccc1)NC2=O (stereo unspecified)
inactive: [7] 92 % of control | [8] 94 % of control | [9] 94 % of control

COC(=O)c1ccc(O)cc1
inactive: dose: 12.5 mg/kg/injection, schedule: Q01DX005 (ip), vehicle: saline with Tween-80 98 % of control | dose: 25.0 mg/kg/injection, schedule: Q01DX005 (ip), vehicle: saline with Tween-80 99 % of control | [7] 100 % of control | [8] 100 % of control | [9] 105 % of control | dose: 400.0 mg/kg/injection, schedule: Q01DX005 (ip), vehicle: saline with Tween-80 100 % of control

O=C(OC(=O)c1cccc(-c2ccccc2)c1)c1cccc(-c2ccccc2)c1
inactive: dose: 100.0 mg/kg/injection, schedule: Q04DX003 (ip), vehicle: Klucel (hydroxypropylcellulose) (HPC) 104 % of control | dose: 200.0 mg/kg/injection, schedule: Q04DX003 (ip), vehicle: Klucel (hydroxypropylcellulose) (HPC) 90 % of control | dose: 400.0 mg/kg/injection, schedule: Q04DX003 (ip), vehicle: Klucel (hydroxypropylcellulose) (HPC) 90 % of control

CSC(=NCCCCCCCCN=C(NC#N)SC)NC#N
inactive: [1] 94 % of control | [2] 102 % of control | [3] 95 % of control

CCOC(=O)c1cnc2cc3c(cc2c1Nc1cccc(C)c1)OCO3
inactive: dose: 60.0 mg/kg/injection, schedule: Q01DX005 (ip), vehicle: Klucel (hydroxypropylcellulose) (HPC) 95 % of control | dose: 120.0 mg/kg/injection, schedule: Q01DX005 (ip), vehicle: Klucel (hydroxypropylcellulose) (HPC) 99 % of control | dose: 240.0 mg/kg/injection, schedule: Q01DX005 (ip), vehicle: Klucel (hydroxypropylcellulose) (HPC) 91 % of control

Cn1c([N+](=O)[O-])cnc1/C=[N+](\[O-])CCO
inactive: [10] 100 % of control | [11] 100 % of control | [12] 102 % of control

CN(C)C(=O)n1ccc(NC=O)n1
inactive: [10] 92 % of control | [11] 94 % of control | [12] 103 % of control

C/C=C(\C)C(C)(C#N)Nc1ccccc1 (stereo unspecified)
inactive: [13] 90 % of control

OCCSc1nc2ccc(N=Cc3ccccc3O)cc2s1
inactive: [1] 100 % of control | [2] 100 % of control | [3] 90 % of control

CCCOc1ccc(C(C)c2cc3c(cc2OCC)OCO3)cc1 (stereo unspecified)
inactive: dose: 50.0 mg/kg/injection, schedule: Q01DX005 (ip), vehicle: Klucel + Tween-80 104 % of control | dose: 100.0 mg/kg/injection, schedule: Q01DX005 (ip), vehicle: Klucel + Tween-80 98 % of control | dose: 200.0 mg/kg/injection, schedule: Q01DX005 (ip), vehicle: Klucel + Tween-80 97 % of control

COC(=O)c1ccccc1S(=O)(=O)N1CCOCC1
inactive: [14] 99 % of control | [15] 99 % of control | dose: 200.0 mg/kg/injection, schedule: Q01DX005 (ip), vehicle: Klucel (hydroxypropylcellulose) (HPC) 98 % of control

CCC(=O)Oc1ccc(C2N(Cc3ccc(N(C)C)cc3)CCCN2Cc2ccc(N(C)C)cc2)cc1
inactive: [5] 90 % of control | [13] 90 % of control

CC1C(O)CC23COC(=O)C2=CCCC3C1(C)CCC1COC(=O)C1 (stereo unspecified)
inactive: dose: 9.38 mg/kg/injection, schedule: Q01DX005 (ip), vehicle: Klucel (hydroxypropylcellulose) (HPC) 101 % of control | dose: 18.75 mg/kg/injection, schedule: Q01DX005 (ip), vehicle: Klucel (hydroxypropylcellulose) (HPC) 90 % of control | dose: 37.5 mg/kg/injection, schedule: Q01DX005 (ip), vehicle: Klucel (hydroxypropylcellulose) (HPC) 105 % of control | dose: 75.0 mg/kg/injection, schedule: Q01DX005 (ip), vehicle: Klucel (hydroxypropylcellulose) (HPC) 117 % of control

CNc1ccc2c(c1)C(=O)c1c(C)n(C)c3cccc-2c13
inactive: [7] 98 % of control

CN(c1ccccc1)C(C#N)CC(C)(C)C (stereo unspecified)
inactive: [14] 98 % of control | [15] 107 % of control

COc1ccc(Cc2cc3c(cc2OCCO)OCO3)cc1
inactive: [7] 105 % of control | [8] 103 % of control | [9] 109 % of control

Nc1nc(N)nc(-c2cccs2)n1
inactive: [4] 92 % of control | [5] 101 % of control | dose: 50.0 mg/kg/injection, schedule: Q04DX002 (ip), vehicle: saline with Tween-80 92 % of control | [6] 100 % of control | dose: 100.0 mg/kg/injection, schedule: Q04DX002 (ip), vehicle: saline with Tween-80 90 % of control | dose: 200.0 mg/kg/injection, schedule: Q04DX002 (ip), vehicle: saline with Tween-80 106 % of control

From PubChem BioAssay AID330 (DTP/NCI, 2004)
